This is an account of results in patent publication US20110136880A1, “Latrunculin-Based Macrolides and Their Uses” (priority 2009, published 2011).

Each structure is given as a SMILES string.

The test system of test [1] is MDA-MB-231. The test is described as follows: MTT proliferation assay, MDA-MB-231. The format is cell-based, human. To be noted: for IC50: Homo sapiens, MDA-MB-231, MTT, 72 h, mean ± SEM, read-out: IC50 (μM) MDA-MB-231. The text has this: (§1) The antiproliferative and anti-invasive activities of compounds 1-14 were quantified using MTT and cell invasion assay kits, respectively. Latrunculin A (compound 1) was used as a positive control in all biological assays, because it is known to be an actin polymerization inhibitor, with cytotoxic, antiproliferative, and anti-invasive activities. The 3-[4,5-dimethylthiazol-2-yl]-2,5-diphenyl tetrazolium bromide (MTT) assay selectively detects living cells in a quantitative, colorimetric fashion, based on a living cell's ability to reduce MTT to an insoluble, purple formazan dye. The MTT assay is routinely used to assess cytotoxicity and proliferation inhibition activities. The antiproliferative activities of compounds 1-14 were measured against two human mammary gland adenocarcinoma cell lines, MCF7 and MDA-MB-231, and against human prostate cancer cells PC-3 at five different doses (0.1, 0.5, 1, 10, and 50 μM). While many of the semisynthetic latrunculins had similar activity levels, some had greater activity than compound 1. […] Although the MDA-MB-231 cells were more resistant than MCF7 against most latrunculin derivatives tested, compound 14 had potent activity against both cell lines.
(§2) MTT Proliferation Assay. The growth of MCF7, MDA-MB-231, and PC-3 cancer cell lines was measured using an MTT kit (TACS™, TREVIGEN®, Inc.). Exponentially growing cells were plated in a 96-well plate at a density of 8×10^3 cells per well, and allowed to attach for 24 h. Complete growth medium was then replaced with 100 μL of RPMI serum-free medium containing various concentrations (50, 10, 1, 0.5, 0.1 μM) of the particular test compound. Culture continued at 37° C. under 5% CO2. After 72 h of culture, the cells were treated with MTT solution (10 μL/well) at 37° C. for 4 h. The color reaction was stopped by adding solubilization/stop solution (100 μL/well). Incubation continued at 37° C. continued to completely dissolve the formazan dye product. Absorbance of the samples was determined at 570 nm with an ELISA plate reader (BioTek, VT). The number of cells per well was calculated against a standard curve that had been prepared by plating various concentrations of cells, as determined by hemocytometer, at the start of each experiment. IC50 for each compound was calculated using a nonlinear regression curve fit of log concentration versus the number of cells/well, using GraphPad Prism 5.0 (GraphPad Software, La Jolla, Calif.).
(In general: Formazan colour is commonly taken as a measure of viable cells.)

The subject of test [2] is alkaline phosphatase in C2C12 cells. The test is described as follows: Alkaline phosphatase in C2C12 cells (Wnt pathway). Format: cell-based. As to conditions: Mus musculus. The text has this:
(§3) Effects on Wnt/β-catenin. […] These two compounds affected both alkaline phosphatase and β-catenin levels in C2C12 cells.

Test [3] deals with MDA-MB-231. The test is described as follows: Wound-healing assay. The format is cell-based, human. To be noted: 100 nM dose. On the procedure:
Wound-healing assay. MDA-MB-231 cells are plated onto sterile 24-well plates and allowed to form a confluent cell monolayer (>95% confluence) overnight. Wounds are then inflicted on each cell monolayer using a sterile 200 μL pipette tip. Media are removed, and cells are washed twice with PBS and once with fresh serum-free media. Test latrunculin compounds at various concentrations (100 nM-10 μM) in fresh, serum-free media are added to each well and incubated for 24 h under serum-starved conditions. Media are then removed, and the cells are washed, fixed and stained using Diff-Quick™ staining (Dade Behring Diagnostics, Aguada, Puerto Rico). Cells that have migrated across the inflicted wound are counted under the microscope in three or more randomly selected fields (magnification: 400×). All experiments are conducted independently in triplicate replications.

The subject of the next test is MDA-MB-231 cells. The test is described as follows: Cultrex BME cell invasion assay. Format: cell-based, human. To be noted: for fold more active against cell invasion than latrunculin A (compound 1): 0.5 μM. How it is done: The anti-invasive activities of compounds 1-14 were measured using a 96 well basement membrane extract (BME) cell invasion assay kit against the highly metastatic MDA-MB-231 cells. This assay employs a simplified Boyden Chamber with a polyethylene terephthalate membrane (8 μm pore size). Cell invasion was quantified using calcein-acetomethylester (calcein-AM). Cells internalize calcein-AM; intracellular esterases then cleave the acetomethylester moiety to generate free calcein. Free calcein fluoresces brightly. This fluorescence may be used to quantify the number of cells that have invaded across the BME. To correlate the anti-invasive activities of the latrunculin A derivatives with their actin-disrupting activities, compounds 1-14 were each tested at non-toxic concentrations. […] Accordingly, all compounds were tested at 0.1, 0.5, and 1.0 μM. Compound 3 killed 17% of MDA-MB-231 cells at 1.0 μM, while the same dose of compound 3 inhibited 95% of MDA-MB-231 cells' invasion. […] The anti-invasive activities of compounds 1-14 are attributed primarily to the inhibition of actin polymerization, not to cell death per se.
Cultrex® Cell Invasion Assay. Anti-invasive activities were measured using Trevigen's Cultrex® Cell Invasion Assay as described in K. Tamilarasan et al., BMC Cell Biol. 2006, 7, 17-30; and P. Borghesani et al., Development. 2002, 6, 1435-1442. About 50 μL of basement membrane extract (BME) coat was added to each well. After incubation for 4 h at 37° C. under 5% CO2, 50,000 MDA-MB-231 cells in 50 μL of serum free RPMI medium were added to each well in the top chamber, along with the test compound at one of several concentrations (0.1, 0.5, 1 μM). About 150 μL of RPMI medium was added to the lower chamber in 10% FBS and penicillin/streptomycin, using fibronectin ([…]) and N-formyl-met-leu-phe (10 nM) as chemoattractants. Cells were allowed to migrate to the lower chamber at 37° C. under 5% CO2. After 24 h, the top and bottom chambers were aspirated and washed with the washing buffer that had been supplied with the kit. About 100 μL of Cell Dissociation Solution/Calcein-AM solution was added to the bottom chamber, and the cells were incubated at 37° C. under CO2 for 1 h. Briefly, the cells internalize calcein-AM, and then the intracellular esterases cleave the AM moiety to generate free calcein. […] The number of cells that had invaded through the BME coat was calculated using a standard curve.

The next test has as its system β-catenin in C2C12 cells. The test is described as follows: Wnt/β-catenin signaling, β-catenin levels in C2C12 cells. The format is cell-based.
Source text: as §3

A further test has as its system PC-3. Nature of the test: MTT proliferation assay, PC-3. The format is cell-based, human. To be noted: for IC50: Homo sapiens, PC-3, MTT, 72 h, read-out: IC50 (μM) PC-3.
Source text: as §1, §2

The subject of test [4] is prostate cancer cell line PC-3. The test is described as follows: Invasion assay, PC-3. The format is cell-based, human. As to conditions: without cytotoxicity.
For test [5], the system named is breast, CNS, colon, lung, melanoma, ovarian, and renal cancer cells. The test is described as follows: Antiproliferative testing against 60 cell lines (NSC compounds). Format: cell-based.

Turning to `COc1ccc(CC(=O)N2C(=O)SC[C@H]2[C@@]2(OC)C[C@H]3C[C@@H](CC[C@H](C)/C=C\C=C\CC/C(C)=C\C(=O)O3)O2)cc1` [Compound 11, 17-O-Methyl-N-(7′-methoxyphenylacetyl)latrunculin A], the IC50 in the test on MDA-MB-231 [1] stood at 26.2 ± 3.91 µM; in test [2], 0.004 µM; with β-catenin in C2C12 cells (Mus musculus), 0.007 µM; in the test with PC-3, 19.8 µM. In addition, in the test with MDA-MB-231 [3], the anti-migratory activity entry is given as “potent anti-migratory”. Further, in the test with MDA-MB-231 cells, the “fold more active against cell invasion than latrunculin A (compound 1)” value is given as 4.6 fold. Moreover, the Wnt/β-catenin signaling result in the test with β-catenin in C2C12 cells was “strongly inhibited”. Also, the “anti-invasive activity against PC-3” value in test [4] is “potent anti-invasive activity”.
For `C/C1=C/C(=O)O[C@@H]2C[C@@H](CC[C@H](C)/C=C\C=C\CC1)O[C@@](O)([C@@H]1CSC(=O)N1CO)C2` [Compound 14, N-Hydroxymethyllatrunculin A], the IC50 in the test on MDA-MB-231 [1] amounted to 2.99 ± 0.15 µM; with PC-3, 0.36 µM. Besides, the “factor of greater activity than compound 1, MDA-MB-231 proliferation assay” value with MDA-MB-231 [1] (assessed at 1 μM) amounted to 1.4. The “fold more active against cell invasion than latrunculin A (compound 1)” value with MDA-MB-231 cells is reported as 2.1 fold. In addition, the “factor of greater activity than compound 1, MDA-MB-231 invasion assay” value in the test with MDA-MB-231 cells (assessed at 1 μM) is listed as 2.7. The “fold increase in activity against PC-3 versus compound 1” value with PC-3 (relative to compound 1) is listed as 10.8 fold. Besides, the “number of the 60 cell lines tested with antiproliferative activity” value in test [5] (dose of 10 μM) is listed as 18. Besides, the log10GI50 in test [5] (five-points dose-response, range over active cell lines) was −7.13 to −7.83.

What is called IC50 is the concentration at which inhibition is half-maximal.
